The assay has as its system SN12K1 renal. Description: growth of human tumour cells (NCI), 48 h.

The structures appear in SMILES notation.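 Values below derive from 48-hour exposures of cells grown in 96-well plates, with endpoints linearly interpolated between the two concentrations bracketing the appropriate inhibition level. TGI: total growth inhibition.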

Regarding `COC(C(=O)C(O)C(C)O)C1Cc2cc3cc(OC4CC(OC(C)=O)C(OC5CC(O)C(OC)C(C)O5)C(C)O4)cc(O)c3c(O)c2C(=O)C1OC1CC(OC2CC(OC3CC(C)(O)C(OC(=O)C(C)C)C(C)O3)C(O)C(C)O2)C(O)C(C)O1` (stereo unspecified), the TGI was 12.6 nM.

Source of the values: PubChem BioAssay (NCI).
